Source: the supplement of paper PMC10307832

Columns and labels:
Assay in all cases: relative viability (nuclei count vs DMSO), 5 days (fraction); higher = more cells survive
[1] = test system: LU99A
Outline: (§1)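 Dosing by pin tool came one day after lung cancer cell lines were seeded in 1536-well plates, using either one drug or a fixed anchor-drug dose plus five library-drug doses (not always all listed) in √10 steps. After 5 days, nuclei were counted on 4× images. Relative viability is treated-well nuclei count divided by vehicle-well nuclei count, and values are medians of duplicate plates.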

[2] = test system: CAL-12T
Outline: as §1

[3] = test system: HCC-366
Outline: as §1

[4] = test system: ABC-1
Outline: as §1

[5] = test system: NCI-H2405
Outline: as §1

[6] = test system: HCC-78
Outline: as §1

[7] = test system: EPLC-272H
Outline: as §1

[8] = test system: ChaGo-K-1
Outline: as §1

[9] = test system: NCI-H1944
Outline: as §1

[10] = test system: LC-2-ad
Outline: as §1

[11] = test system: PC-3 [JPC-3]
Outline: as §1

[12] = test system: NCI-H2087
Outline: as §1

[13] = test system: NCI-H1793
Outline: as §1

[14] = test system: NCI-H1734
Outline: as §1

[15] = test system: RERF-LC-KJ
Outline: as §1

[16] = test system: NCI-H3122
Outline: as §1

[17] = test system: LOU-NH91
Outline: as §1

[18] = test system: UMC-11
Outline: as §1

[19] = test system: NCI-H460
Outline: as §1

[20] = test system: NCI-H1395
Outline: as §1

[21] = test system: NCI-H1755
Outline: as §1

[22] = test system: NCI-H2170
Outline: as §1

[23] = test system: NCI-H2228
Outline: as §1

[24] = test system: NCI-H1651
Outline: as §1

In the case of `CC(C)Oc1cc(Nc2nc(N[C@@H](C)c3ccc(F)cn3)ncc2Cl)n[nH]1` [AZ23] + Cc1cc(Nc2cc(N3CCN(C)CC3)nc(Sc3ccc(NC(=O)C4CC4)cc3)n2)n[nH]1 [Tozasertib] (partner 0.1 µM), the relative viability ([1]; first compound 0.01 µM) is reported as 0.243, the relative viability ([1]; first compound 0.03162 µM) is reported as 0.286 and the relative viability ([1]; first compound 0.3162 µM) is reported as 0.296. The relative viability ([2]; first compound 0.03162 µM) was 0.342, the relative viability ([2]; first compound 0.3162 µM) was 0.241 and the relative viability ([3]; first compound 0.01 µM) was 0.114. For the same compound, the relative viability ([3]; first compound 0.03162 µM) was 0.152, the relative viability ([3]; first compound 0.3162 µM) was 0.234 and the relative viability ([4]; first compound 0.01 µM) was 0.192. It also gave a relative viability ([4]; first compound 0.03162 µM) of 0.201, a relative viability ([4]; first compound 0.3162 µM) of 0.195 and a relative viability ([5]; first compound 0.01 µM) of 0.709. The relative viability ([5]; first compound 0.03162 µM) was 0.774, the relative viability ([5]; first compound 0.3162 µM) was 0.808 and the relative viability ([6]; first compound 0.01 µM) was 0.344. For the same compound, the relative viability ([6]; first compound 0.03162 µM) was 0.482, the relative viability ([6]; first compound 0.3162 µM) was 0.334 and the relative viability ([7]; first compound 0.01 µM) was 0.384. The relative viability ([7]; first compound 0.03162 µM) was 0.263, the relative viability ([7]; first compound 0.3162 µM) was 0.246 and the relative viability ([8]; first compound 0.01 µM) was 0.234. It also gave a relative viability ([8]; first compound 0.03162 µM) of 0.234, a relative viability ([8]; first compound 0.3162 µM) of 0.235 and a relative viability ([9]; first compound 0.01 µM) of 0.279. For the same compound, the relative viability ([9]; first compound 0.03162 µM) was 0.247, the relative viability ([9]; first compound 0.3162 µM) was 0.243 and the relative viability ([10]; first compound 0.01 µM) was 0.467. It also gave a relative viability ([10]; first compound 0.03162 µM) of 0.446, a relative viability ([10]; first compound 0.3162 µM) of 0.452 and a relative viability ([11]; first compound 0.01 µM) of 1.03. For the same compound, the relative viability ([11]; first compound 0.03162 µM) was 0.87, the relative viability ([11]; first compound 0.3162 µM) was 0.959 and the relative viability ([12]; first compound 0.01 µM) was 0.271. It also gave a relative viability ([12]; first compound 0.03162 µM) of 0.245, a relative viability ([12]; first compound 0.3162 µM) of 0.245 and a relative viability ([13]; first compound 0.01 µM) of 0.317. It also gave a relative viability ([13]; first compound 0.03162 µM) of 0.373, a relative viability ([13]; first compound 0.3162 µM) of 0.339 and a relative viability ([14]; first compound 0.01 µM) of 0.252. The relative viability ([14]; first compound 0.03162 µM) was 0.289, the relative viability ([14]; first compound 0.3162 µM) was 0.276 and the relative viability ([15]; first compound 0.01 µM) was 0.532. For the same compound, the relative viability ([15]; first compound 0.03162 µM) was 0.569, the relative viability ([15]; first compound 0.3162 µM) was 0.572 and the relative viability ([16]; first compound 0.01 µM) was 0.504. The relative viability ([16]; first compound 0.03162 µM) was 0.456, the relative viability ([16]; first compound 0.3162 µM) was 0.52 and the relative viability ([17]; first compound 0.01 µM) was 0.641. It also gave a relative viability ([17]; first compound 0.03162 µM) of 0.72, a relative viability ([17]; first compound 0.3162 µM) of 0.644 and a relative viability ([18]; first compound 0.01 µM) of 0.181. It also gave a relative viability ([18]; first compound 0.03162 µM) of 0.197, a relative viability ([18]; first compound 0.3162 µM) of 0.19 and a relative viability ([19]; first compound 0.01 µM) of 0.184. The relative viability ([19]; first compound 0.03162 µM) was 0.518, the relative viability ([19]; first compound 0.3162 µM) was 0.566 and the relative viability ([20]; first compound 0.03162 µM) was 0.812. It also gave a relative viability ([20]; first compound 0.3162 µM) of 0.815, a relative viability ([21]; first compound 0.01 µM) of 0.556 and a relative viability ([21]; first compound 0.03162 µM) of 0.613. The relative viability ([21]; first compound 0.3162 µM) was 0.664, the relative viability ([22]; first compound 0.01 µM) was 0.836 and the relative viability ([22]; first compound 0.03162 µM) was 0.752. For the same compound, the relative viability ([22]; first compound 0.3162 µM) was 0.831, the relative viability ([23]; first compound 0.01 µM) was 0.219 and the relative viability ([23]; first compound 0.03162 µM) was 0.247. The relative viability ([23]; first compound 0.3162 µM) was 0.265, the relative viability ([24]; first compound 0.03162 µM) was 0.885 and the relative viability ([24]; first compound 0.3162 µM) was 0.71.
